Measurements from publication PMC7200681, “The calcitonin-like system is an ancient regulatory system of biomineralization” (Scientific Reports, 2020).
Bridge positions count the residues as written; N and C are the ends.

Tested on: mussel mantle edge
Assay: Ex-vivo incubation of mantle edge fragments, calcium quantification by MP-AES
Design: species or system Mytilus galloprovincialis
Conditions: 4 h at 19-20 °C; CALCIIa 10 μM or ouabain 2 mM alone; MP-AES at 393.366 nm; mean ± SEM; control 400.67 ±13.83 ppm; SEM
Procedure: Figure 7 Effect of the mussel calcitonin-like peptide on (A) calcium (ppm) concentration in the mantle edge and (B) calcium uptake by mantle cells of the Mediterranean mussel. (A) The quantity of calcium (ppm) present in the mantle edge after mussel CALCIIa peptide incubation was measured using a Microwave Plasma-Atomic Emission Spectrometer (MP-AES, Agilent) at 393.366 nm. A standard curve for calcium was performed before analysing the samples. In vitro mantle assays with CALCIIa peptide and with ouabain and control (culture medium and mantle) were repeated on at least 3 independent occasions. For each assay at least ten replicates were performed and the mantle edge distal to the umbo was used (one mantle fragment per replica). Prism GraphPad v5 software was used to assess the significance of differences between the groups using a One-way Anova and Tukey’s multiple comparison test. […] C - control (no peptide or ouabain); P - peptide (10 μM); O - ouabain (2 mM), OP - ouabain (2 mM) and peptide (10 μM); PreOP - pre -stimulation for 1 hour with the peptide followed by 4 hours incubation with OP. (B) Digital photographs of the mussel mantle cells in the presence (CALCIIa, 10 μM) or absence (control) of the mussel CALCIIa peptide. Calcium ions were stained with 50 mM of Calcein (green) and cell nuclei (blue) with DAPI (Acros Organics). An increase in cellular fluorescence represents an increase in calcium uptake. Fluorescence of the CALCIIa peptide stimulated cells was 1.9 times higher than the control. The average mantle cell size was 3–4 μm and fluorescent images were taken using a Leica DM IL microscope coupled to a Visicam HDMI 6 digital camera and photographs were analysed using ImageJ software (v. 1.52a) to calculate the fluorescence intensity and for image overlay. The scale bar is indicated.
The posterior mantle edge region of the Mediterranean mussel was collected and washed in culture medium. The composition of the culture medium was as described in[91] […]

H-CTWGGGMSDEMCSTVDIDEIQRSFQVIHDRNSP-NH2 (disulfide 1-12 (inferred)) [CALCIIa, Mediterranean mussel calcitonin-like mature peptide, 33 aa, synthesized with disulphide bond and C-terminal amidation]
Calcium in the mantle edge after incubation: 513.38 ± 24.33 ppm
